Consider one compound from patent US10723699B2 (Hyundai Pharm Co., Ltd., priority 2015, dated 2020).

In data set [1] the test system is diet-induced obesity (DIO) C57BL/6J mice. Description: OGTT in diet-induced obesity (DIO) mice at the end of 4-week administration. Particulars: glucose 4 g/kg 30 minutes later. Format: in vivo. As to the method:
To simultaneously evaluate both the weight-loss and hypoglycemic effects of the cyclohexene derivative according to the present invention, experiments were carried out, as follows.
Specifically, male C57BL/6J mice (approximately 4 weeks old) in a diet-induced obesity model were fed with a high-fat diet (Lab. Diet Co.) for approximately 12 weeks to induce high-fat diet-induced obesity (DIO). The mice undergoing the high-fat diet were randomly selected, and divided into groups (n=8) for respective administrations.
The weights of the DIO mice were measured twice a week during a period of administration of 4 weeks to record a change in the weights. At the end of the 4-week period of administration, a hypoglycemic effect was evaluated using an oral glucose tolerance test (OGTT), as follows.
Specifically, the compound (+)-(4-(4-((1-(5-ethylpyrimidin-2-yl)piperidin-4-yl)methoxy)phenyl)cyclohex-3-enyl)((R)-2-(hydroxymethyl)pyrrolidin-1-yl)methanone or (−)-(4-(4-((1-(5-ethylpyrimidin-2-yl)piperidin-4-yl)methoxy)phenyl)cyclohex-3-enyl)((R)-2-(hydroxymethyl)pyrrolidin-1-yl)methanone prepared in Example 290 or 291 was orally administered at a dose of 10 to 20 mg/kg. […] A blood glucose level was determined using an Accu-Chek Active Strip (Roche diagnostic Co.). […]

A further data set addresses T1, CYP1A2 (Homo sapiens, UniProt P05177).
T1 construct: purchased BD GENTEST 459100
T1 sequence (P05177 1-516): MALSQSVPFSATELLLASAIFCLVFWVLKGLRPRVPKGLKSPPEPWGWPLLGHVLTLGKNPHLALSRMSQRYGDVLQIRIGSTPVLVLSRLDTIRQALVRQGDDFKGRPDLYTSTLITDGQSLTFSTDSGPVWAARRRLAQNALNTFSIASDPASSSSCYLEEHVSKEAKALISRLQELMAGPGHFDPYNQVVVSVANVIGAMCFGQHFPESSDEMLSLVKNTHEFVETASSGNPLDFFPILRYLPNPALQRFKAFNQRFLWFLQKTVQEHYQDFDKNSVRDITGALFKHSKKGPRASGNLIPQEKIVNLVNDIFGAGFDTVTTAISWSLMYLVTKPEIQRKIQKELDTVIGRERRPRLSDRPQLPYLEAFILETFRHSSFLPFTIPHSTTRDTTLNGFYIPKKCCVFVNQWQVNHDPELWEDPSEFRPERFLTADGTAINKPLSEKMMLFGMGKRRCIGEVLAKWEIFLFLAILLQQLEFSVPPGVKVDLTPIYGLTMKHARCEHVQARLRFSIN
The data set is described as follows: CYP inhibition assay (BD GENTEST kit). Format: in vitro ADME. The settings on record: 10 μM. An excerpt: (§1) CYP enzymes play a major role in the metabolism of drugs. Depending on the inhibition activity of the CYP enzymes, the dose of the drugs and toxicity due to the co-administration of other drugs can be predicted. Therefore, we have measured the inhibitory activity for CYP3A4, CYP2C9, CYP1A2, CYP2D6 and CYP2C19 enzymes present in the body using the compounds of the present invention. Invitrogen P2862 kit was used for CYP2D6 inhibition assay, and BD GENTEST (459100, 459300, 459400, 459500) kits were used for CYP1A2, CYP2C9, CYP2C19 and CYP3A4 inhibition assay. In case of Invitrogen kit, the test materials were diluted in distilled water into 2.5× of the final test concentration.
(§2) In case of BD GENTEST kit, the test materials were diluted in acetonitrile into 50× of the final test concentration. NADPH-cofactor mixture containing cofactor, G6PDH and control protein was prepared in distilled water as per manufacturer's instruction. 4 μl of 50× test materials and 96 μl of NADPH-cofactor mixture were mixed in U-bottom 96-well plate, and the resulting mixture were pre-incubated at 37° C. for 10 minutes. Predetermined concentrations of enzyme/substrate mixture were prepared in distilled water using buffer (0.5M potassium phosphate, pH 7.4) and each of CYP450 enzyme/substrate mixture provided in the kit for the types of CYP450. To the pre-incubated plate, 100 μl of enzyme/substrate mixture was added, and then incubated at 37° C. for 15 minutes (CYP1A2), 30 minutes (CYP3A4 and CYP2C19) or 1.5 hours (CYP2C9). After completion of the reaction, the reactants were transferred to the white plates, and fluorescent values were measured using a micro-plate reader (Excitation and absorption wavelengths of CYP1A2 and CYP2C19 were 410 nm and 460 nm, respectively; and excitation and absorption wavelengths of CYP2C9 and CYP3A4 were 409 nm and 530 nm, respectively).
(§3) The measured values were converted into the inhibition percent of the test materials as compared to the value of the untreated control, and the results were summarized in Table 5.

The target in the next data set is T2, CYP2C19 (Homo sapiens, UniProt P33261).
T2 construct: purchased BD GENTEST 459400
The data set is described as follows: CYP inhibition assay (BD GENTEST kit). The data set is classed as in vitro ADME. Particulars: 10 μM.
Excerpt: as §1, §2, §3

The next data set concerns the target T3, CYP2C9 (Homo sapiens, UniProt P11712).
T3 construct: purchased BD GENTEST 459300
Description: CYP inhibition assay (BD GENTEST kit). Format: in vitro ADME. Particulars: 10 μM.
Excerpt: as §1, §2, §3

The target in a further data set is T4, CYP3A4 (Homo sapiens, UniProt P08684).
T4 construct: purchased BD GENTEST 459500
Description: CYP inhibition assay (BD GENTEST kit). The settings on record: 10 μM. Format: in vitro ADME.
Excerpt: as §1, §2, §3

T3 sequence (P11712 whole entry): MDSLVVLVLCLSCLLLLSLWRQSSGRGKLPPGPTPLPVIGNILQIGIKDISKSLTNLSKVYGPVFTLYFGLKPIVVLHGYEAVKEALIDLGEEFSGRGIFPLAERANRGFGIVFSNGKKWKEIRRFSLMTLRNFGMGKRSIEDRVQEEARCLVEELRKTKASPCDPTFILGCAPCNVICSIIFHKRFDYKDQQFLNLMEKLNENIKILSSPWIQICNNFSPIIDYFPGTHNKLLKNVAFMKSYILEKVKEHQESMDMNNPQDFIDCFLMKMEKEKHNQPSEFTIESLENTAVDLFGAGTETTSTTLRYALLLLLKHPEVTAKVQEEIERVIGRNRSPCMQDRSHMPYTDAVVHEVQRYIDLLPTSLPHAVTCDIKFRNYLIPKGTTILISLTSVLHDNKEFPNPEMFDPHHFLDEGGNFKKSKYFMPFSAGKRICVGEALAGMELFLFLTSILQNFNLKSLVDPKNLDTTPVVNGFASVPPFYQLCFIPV
T4 sequence (P08684 whole entry): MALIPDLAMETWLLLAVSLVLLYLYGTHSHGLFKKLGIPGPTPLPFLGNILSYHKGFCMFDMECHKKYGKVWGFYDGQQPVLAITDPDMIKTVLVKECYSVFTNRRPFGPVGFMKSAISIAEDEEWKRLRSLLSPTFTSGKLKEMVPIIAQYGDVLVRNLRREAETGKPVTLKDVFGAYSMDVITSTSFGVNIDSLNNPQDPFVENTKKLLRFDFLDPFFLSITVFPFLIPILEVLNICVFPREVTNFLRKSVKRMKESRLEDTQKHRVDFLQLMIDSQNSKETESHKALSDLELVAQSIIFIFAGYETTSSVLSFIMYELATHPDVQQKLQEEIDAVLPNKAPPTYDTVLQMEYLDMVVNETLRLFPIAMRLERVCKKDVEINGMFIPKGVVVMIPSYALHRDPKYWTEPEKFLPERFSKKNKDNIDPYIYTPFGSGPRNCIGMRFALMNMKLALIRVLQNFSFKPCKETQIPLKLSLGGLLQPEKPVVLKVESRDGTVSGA
T2 sequence (P33261 whole entry): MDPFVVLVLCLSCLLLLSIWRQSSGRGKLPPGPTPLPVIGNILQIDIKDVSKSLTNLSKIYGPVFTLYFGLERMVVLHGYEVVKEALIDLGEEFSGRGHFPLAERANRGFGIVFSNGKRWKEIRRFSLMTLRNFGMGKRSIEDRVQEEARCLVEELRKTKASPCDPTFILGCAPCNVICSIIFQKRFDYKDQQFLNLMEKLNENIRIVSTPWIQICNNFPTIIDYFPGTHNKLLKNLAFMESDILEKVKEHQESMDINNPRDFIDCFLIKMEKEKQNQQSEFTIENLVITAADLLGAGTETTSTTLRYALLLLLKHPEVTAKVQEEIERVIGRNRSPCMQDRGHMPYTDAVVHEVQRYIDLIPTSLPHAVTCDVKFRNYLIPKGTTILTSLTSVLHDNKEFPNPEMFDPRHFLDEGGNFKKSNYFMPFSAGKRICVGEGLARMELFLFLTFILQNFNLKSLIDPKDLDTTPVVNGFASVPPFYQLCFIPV

Consider `CCc1cnc(N2CCC(COc3ccc(C4=CCC(C(=O)N5CCC[C@@H]5CO)CC4)cc3)CC2)nc1` (single isomer, unassigned; (-)) [Example 291], for which the “% AUC (hypoglycemic level)” value is 16.2 % AUC in data set [1] (10 mg/kg oral) and 17.6 % AUC in data set [1] (20 mg/kg oral). Moreover, on CYP1A2, the “CYP inhibition (% at 10 μM) 1A2” value is listed as 0%. For the same compound, the “CYP inhibition (% at 10 μM) 2C19” value on CYP2C19 is 54.06%. Besides, the “CYP inhibition (% at 10 μM) 2C9” value at CYP2C9 was determined as 47.32%. Further, the “CYP inhibition (% at 10 μM) 3A4” value at CYP3A4 worked out at 36.36%.
